Structures are written as SMILES.

These results are taken from paper PMC3914206.

Assay type in all cases: binding
Conditions in all cases: Compound Concentration 10 µM

Assay [1] deals with T1, panel of 442 kinases (Homo sapiens, UniProt P49760).
T1 construct: purchased KINOMEscan
An excerpt: (§1) We assessed the selectivity of members of this scaffold using the KINOMEscan methodology across a near comprehensive panel of 442 kinases [[18,27]].

Assay [2] addresses T2, panel of 442 kinases (Homo sapiens, UniProt Q9Y6R4).
T2 construct: purchased KINOMEscan
From the text: as §1

Assay [3] has as its target T3, panel of 442 kinases (Homo sapiens, UniProt Q9UQ88).
T3 construct: purchased KINOMEscan
T3 sequence (Q9UQ88 1-783): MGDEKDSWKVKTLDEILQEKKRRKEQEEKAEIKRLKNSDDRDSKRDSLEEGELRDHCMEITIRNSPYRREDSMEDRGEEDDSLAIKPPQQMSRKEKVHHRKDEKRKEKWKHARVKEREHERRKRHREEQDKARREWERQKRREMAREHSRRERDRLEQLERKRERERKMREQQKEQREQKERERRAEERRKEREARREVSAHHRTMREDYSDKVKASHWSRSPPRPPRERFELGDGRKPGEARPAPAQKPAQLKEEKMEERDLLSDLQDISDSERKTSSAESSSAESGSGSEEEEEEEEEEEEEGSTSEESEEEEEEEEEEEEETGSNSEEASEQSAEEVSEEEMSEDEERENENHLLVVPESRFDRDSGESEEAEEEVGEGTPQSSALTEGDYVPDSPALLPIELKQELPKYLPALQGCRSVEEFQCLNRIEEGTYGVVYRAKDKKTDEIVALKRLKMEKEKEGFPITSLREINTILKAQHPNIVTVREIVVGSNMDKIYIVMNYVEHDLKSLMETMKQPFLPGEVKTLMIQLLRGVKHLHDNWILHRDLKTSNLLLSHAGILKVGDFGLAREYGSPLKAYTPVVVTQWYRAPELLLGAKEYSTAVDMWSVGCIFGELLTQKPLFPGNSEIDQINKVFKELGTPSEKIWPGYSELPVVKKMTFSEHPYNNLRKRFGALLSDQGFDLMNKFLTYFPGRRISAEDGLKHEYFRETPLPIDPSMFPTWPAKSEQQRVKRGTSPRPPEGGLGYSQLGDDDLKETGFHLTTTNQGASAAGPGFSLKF
From the text: as §1

T1 sequence (P49760 whole entry): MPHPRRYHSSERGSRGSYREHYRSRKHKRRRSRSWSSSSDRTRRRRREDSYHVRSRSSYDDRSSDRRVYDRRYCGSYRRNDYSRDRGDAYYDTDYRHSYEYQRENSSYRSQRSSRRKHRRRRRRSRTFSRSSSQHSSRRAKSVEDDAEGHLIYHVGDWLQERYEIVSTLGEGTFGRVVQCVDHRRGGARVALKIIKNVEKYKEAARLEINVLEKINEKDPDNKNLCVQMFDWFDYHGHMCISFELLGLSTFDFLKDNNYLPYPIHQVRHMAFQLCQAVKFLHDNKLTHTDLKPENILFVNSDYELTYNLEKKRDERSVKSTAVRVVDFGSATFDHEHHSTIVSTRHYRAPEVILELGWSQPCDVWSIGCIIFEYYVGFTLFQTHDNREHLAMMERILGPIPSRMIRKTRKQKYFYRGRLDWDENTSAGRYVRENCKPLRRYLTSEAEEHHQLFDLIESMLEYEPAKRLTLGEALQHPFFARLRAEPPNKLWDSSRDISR
T2 sequence (Q9Y6R4 whole entry): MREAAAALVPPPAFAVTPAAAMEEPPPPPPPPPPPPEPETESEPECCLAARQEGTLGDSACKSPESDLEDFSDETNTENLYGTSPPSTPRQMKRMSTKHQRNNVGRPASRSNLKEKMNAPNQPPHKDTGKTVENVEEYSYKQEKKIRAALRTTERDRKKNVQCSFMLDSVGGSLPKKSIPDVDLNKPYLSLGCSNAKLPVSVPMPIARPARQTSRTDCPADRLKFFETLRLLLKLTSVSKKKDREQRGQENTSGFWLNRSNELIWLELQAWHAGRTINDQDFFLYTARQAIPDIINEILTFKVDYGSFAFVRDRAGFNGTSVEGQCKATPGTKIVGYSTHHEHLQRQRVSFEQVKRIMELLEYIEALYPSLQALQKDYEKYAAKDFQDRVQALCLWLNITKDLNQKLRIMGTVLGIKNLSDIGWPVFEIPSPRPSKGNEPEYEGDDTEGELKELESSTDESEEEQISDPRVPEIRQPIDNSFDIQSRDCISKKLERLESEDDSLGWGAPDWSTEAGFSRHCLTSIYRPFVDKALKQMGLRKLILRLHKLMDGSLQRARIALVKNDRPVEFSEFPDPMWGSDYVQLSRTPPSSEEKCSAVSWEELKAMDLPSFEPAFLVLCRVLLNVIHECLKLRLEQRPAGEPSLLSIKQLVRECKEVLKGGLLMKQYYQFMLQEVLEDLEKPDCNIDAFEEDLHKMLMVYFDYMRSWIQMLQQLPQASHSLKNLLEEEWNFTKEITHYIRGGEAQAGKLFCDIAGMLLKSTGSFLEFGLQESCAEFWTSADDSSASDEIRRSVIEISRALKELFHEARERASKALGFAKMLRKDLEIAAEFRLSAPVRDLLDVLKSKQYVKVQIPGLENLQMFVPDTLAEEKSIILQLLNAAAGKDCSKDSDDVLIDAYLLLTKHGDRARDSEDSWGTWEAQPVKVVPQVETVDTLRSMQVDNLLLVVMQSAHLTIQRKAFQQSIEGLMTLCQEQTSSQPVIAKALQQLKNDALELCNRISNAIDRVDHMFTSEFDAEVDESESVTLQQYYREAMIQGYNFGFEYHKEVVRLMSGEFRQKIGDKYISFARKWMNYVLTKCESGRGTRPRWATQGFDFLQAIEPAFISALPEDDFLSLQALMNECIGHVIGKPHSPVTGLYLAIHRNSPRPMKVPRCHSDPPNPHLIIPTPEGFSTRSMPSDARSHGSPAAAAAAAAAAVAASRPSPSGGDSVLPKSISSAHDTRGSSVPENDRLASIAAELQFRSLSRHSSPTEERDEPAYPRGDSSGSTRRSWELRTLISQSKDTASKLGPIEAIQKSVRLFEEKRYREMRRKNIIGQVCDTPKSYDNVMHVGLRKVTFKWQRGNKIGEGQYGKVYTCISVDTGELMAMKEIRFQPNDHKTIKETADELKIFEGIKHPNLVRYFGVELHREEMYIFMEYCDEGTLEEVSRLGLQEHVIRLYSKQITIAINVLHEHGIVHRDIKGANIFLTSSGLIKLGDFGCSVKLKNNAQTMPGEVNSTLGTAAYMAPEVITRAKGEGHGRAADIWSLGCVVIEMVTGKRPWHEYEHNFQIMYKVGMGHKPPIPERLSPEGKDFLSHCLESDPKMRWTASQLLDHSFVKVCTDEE

With `CCOc1cc(C(=O)N2CCC(N3CCN(C)CC3)CC2)ccc1Nc1ncc2c(n1)N(C1CCCC1)c1ccccc1C(=O)N2C` [Compound 26], at panel of 442 kinases [1], the “KINOMEscan: CLK2” value was determined as 86. Moreover, the “KINOMEscan: MAP3K4” value at panel of 442 kinases [2] worked out at 100. The “KINOMEscan: CDC2L2” value on panel of 442 kinases [3] is recorded as 100.

For `COc1cc(C(=O)N2CCC(N3CCN(C)CC3)CC2)ccc1Nc1ncc2c(n1)N1CCc3cccc(c31)C(=O)N2C` [Compound 24], the “KINOMEscan: CLK2” value on panel of 442 kinases [1] is 25.

Regarding `COc1cc(C(=O)N2CCC(N3CCN(C)CC3)CC2)ccc1Nc1ncc2c(n1)N(C)c1ccccc1C(=O)N2C` [15 (LRRK2-IN-1)], the “KINOMEscan: CLK2” value on panel of 442 kinases [1] is 72. Also, at panel of 442 kinases [2], the “KINOMEscan: MAP3K4” value turned out to be 100. The “KINOMEscan: CDC2L2” value at panel of 442 kinases [3] is reported as 82.

As for `COc1cc(C(=O)N2CCC(N3CCN(C)CC3)CC2)ccc1Nc1ncc2c(n1)N(C1CCCC1)c1ccccc1C(=O)N2C` [Compound 25, 11-cyclopentyl-2-((2-methoxy-4-(4-(4-methylpiperazin-1-yl)piperidine-1-carbonyl)phenyl)amino)-5-methyl-5H-benzo[e]pyrimido[5,4-b][1,4]diazepin-6(11H)-one], at panel of 442 kinases [1], the “KINOMEscan: CLK2” value is listed as 79. Further, the “KINOMEscan: MAP3K4” value at panel of 442 kinases [2] is 100. The “KINOMEscan: CDC2L2” value at panel of 442 kinases [3] is listed as 100.
